According to PubChem BioAssay (NCI):
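Growth conditions: 96-well plates. Treatment: test compound, 48 hours, 5 concentrations. Analysis: linear interpolation between bracketing concentrations; unreached endpoints set to highest concentration. GI50 is the concentration that inhibits growth by half. TGI marks complete inhibition of growth.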

Columns and labels:
Assay in all cases: NCI anticancer screen, dose series, 48 h
CAKI-1 renal = system: CAKI-1 renal
NCI-H522 lung = system: NCI-H522 lung
MDA-MB-435 = system: MDA-MB-435
HT29 colon = system: HT29 colon
SF-268 CNS = system: SF-268 CNS
CCRF-CEM leukemia = system: CCRF-CEM leukemia
HOP-92 NSCLC = system: HOP-92 NSCLC
IGROV1 ovarian = system: IGROV1 ovarian
EKVX NSCLC = system: EKVX NSCLC
UACC-257 melanoma = system: UACC-257 melanoma

Structure (SMILES)	TGI (CAKI-1 renal) [µM]	TGI (NCI-H522 lung) [µM]	TGI (MDA-MB-435) [µM]	TGI (HT29 colon) [µM]	TGI (SF-268 CNS) [µM]	TGI (CCRF-CEM leukemia) [µM]	TGI (HOP-92 NSCLC) [µM]	TGI (IGROV1 ovarian) [µM]	TGI (EKVX NSCLC) [µM]	TGI (UACC-257 melanoma) [µM]	GI50 (CAKI-1 renal) [µM]	GI50 (NCI-H522 lung) [µM]	GI50 (MDA-MB-435) [µM]	GI50 (HT29 colon) [µM]	GI50 (SF-268 CNS) [µM]	GI50 (CCRF-CEM leukemia) [µM]	GI50 (HOP-92 NSCLC) [µM]	GI50 (IGROV1 ovarian) [µM]	GI50 (EKVX NSCLC) [µM]	GI50 (UACC-257 melanoma) [µM]
CC(=O)Oc1ccc2ccc(=O)oc2c1OC(C)=O	> 100	> 100	> 100	> 100	> 100	46.1	> 100	> 100	> 100	> 100										
C[N+](C)(C)CCC(=O)N1C/C(=C\c2ccccc2)C(=O)/C(=C/c2ccccc2)C1	18.2	5.42	5.49	7.93	13	7.05	38.7	13.4	35.9	28.2										
O=C1Nc2cc(Cl)ccc2Oc2cc(Oc3ccccc3)ccc21	38.8	> 100	5.85	18.3	31.6	> 100	9.41	29.9	37.2	> 100	3.81	3.51	0.761	3.22	6.33	3.24	1.32	5.42	4.36	16
O=C(/C=C/C=C/c1ccccc1)c1ccc(Nc2nc(Nc3ccccc3)nc(Nc3ccccc3)n2)cc1	> 100	> 100	> 100	> 100	> 100	> 100	17.7	> 100	> 100	> 100	16.3	> 100	> 100	> 100	97	19.4	0.241	0.627	88.2	> 100
COc1cc(C(=O)NC2CCN(C)CC2)ccc1Nc1ncc2c(n1)N(C1CCCC1)CC(F)(F)C(=O)N2C	12.2	2.92	< 0.01	11.1	12.5	12.2	1.7	16.8	17.5	6.61	1.86	0.0129	< 0.01	< 0.01	0.0487	< 0.01	0.1		0.245	0.222
CCCCCCCCCCCCOC1C(CNC(=O)C2OC3OC(C)(C)OC3C2NC(=O)CN2CCN(c3ccccn3)CC2)OC2OC(C)(C)OC21 (stereo not drawn)	4.59	3.2	3.36	3.34	6.31	5.5	3.18	3.45	3.14	3.49	2.27	1.66	1.69	1.75	2.26	2.5	1.7	1.87	1.7	1.81
CCOC(=O)C1=C(N)Oc2c(sc3c(C)cccc23)C1c1ccc(Cl)cc1 (stereo not drawn)	17.3	6.28	2.59	11.8	22.4	24.1	20.7	15.4	17.1	30.4	1.2	1.22	0.447	3.16	6.13	3.65	3.83	0.962	3.75	13.1
CCCCCCCCCCCC1=NC(C)(C)CN1CCO	18.9	13	6.98	5.05	20.3	18.4	8.11	6.67	29.5	11.5	4.57	4.57	2.51	2.12	6.68	3.54	1.29	2.57	10.7	3.63
C=C1C(=O)O[C@H]2[C@H]1CC/C(C=Nc1ccc(C(F)(F)F)cc1N)=C\CC[C@@]1(C)O[C@@H]21	16.7	7.8	17.2	8.6	21.1	11.2	29.7	18.4	23.4	25.8	3.73	2.43	4.74	3.65	7.6	3.16	15.4	3.36	10.8	12.3
CCOC(=O)c1c[nH]c2c(OCc3ccccc3)c3ccccc3c(O)c2c1=O	21.1	> 83.9	15.6	> 100	50.7	> 100	93.5	> 100	52.7	6.63	4.37	13.3	6.44	22.2	12.9	5.73	27	34.4	6.98	2.52
O=C(CCCCCCC(=O)N/N=C/c1ccc(N(c2ccccc2)c2ccccc2)cc1)NO	1.24	6.92	18.5	6.76	13.6	16.4	4.25	2.74	15.2	1.57	0.201	1.92	3.16	2.26	3.27	2.64	1.67	0.505	3.82	0.39
C(=N/Nc1ncnc2nc[nH]c12)/c1ccccn1	2.64	> 100	> 100	> 100	> 23.7	> 100	8.72	20.9	40.5	7.96	0.308	0.551	1.08	4.07	0.342	0.227	3.14	2.11	0.386	1.87
CCCN(CCC)c1ccc(C=O)cc1	> 100	> 100	> 100	> 100	> 100	> 100	66.2	> 100	> 100	98.2	53.2	28	39.7	52	53.2	30.2	13	> 84.4	30.2	35
O=C(O)CN(CC(=O)O)Cc1cc2c(cc1O)Oc1cc(O)c(CN(CC(=O)O)CC(=O)O)cc1C21OC(=O)c2ccccc21	> 100	> 100	> 100	> 100	> 100	> 100	> 100	> 100	> 100	> 100										
Cc1ccc(Cl)cc1Nc1nc(C(F)(F)F)ccc1C(=O)N/N=C/c1c(Cl)cccc1Cl	3.49	5.98	11.6	> 100	13.4	1.56	6.92	> 68.9	3.71	7.69	0.495	1.77	2.15	0.791	0.623	0.289	1.14	0.994	0.507	2.49
COc1ccc2nc3cccc([N+](=O)[O-])c3c(NCCN(CCO)CCO)c2c1	0.33	0.018	0.0406	0.043	0.234	0.247	0.0829	0.242	0.698	0.0599	0.0382		0.0175	0.0117	0.0332	0.0326	0.0278	0.0329	0.107	0.0248
